What all share (assay): NCI tumour cell line growth inhibition, 48 h
The subject of experiment [1] is ACHN.
Experiment [2] concerns DU-145.
In experiment [3] the test system is HCT-116.
Experiment [4] relates to HOP-92.
The subject of experiment [5] is HT-29.
The test system of experiment [6] is Hs-578T.
Experiment [7] deals with MDA-MB-231.
The test system of experiment [8] is MDA-N.
Experiment [9] deals with MOLT-4.
In experiment [10] the test system is NCI-H226.
Experiment [11] relates to NCI-H23.
In experiment [12] the test system is NCI-H522.
In experiment [13] the test system is OVCAR-3.
For experiment [14], the system named is OVCAR-5.
The subject of experiment [15] is RXF 393.
The test system of experiment [16] is SF-539.
Experiment [17] has as its system SK-OV-3.
Experiment [18] deals with UACC-257.
In experiment [19] the test system is HCT-15.
The test system of experiment [20] is A498.

This is an account of results in ChEMBL document CHEMBL1201862, “PubChem BioAssay data set” (2004).

Each structure is given as a SMILES string.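 Briefly, cells in 96-well plates were exposed to five compound concentrations for 48 h, and endpoints were estimated by linear interpolation. At the GI50, growth is halved.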 Activity calls are given as the source filed them. No stated cut-off is given here; in the data, active = GI50 up to about 1.1 µM and inactive = higher.

On to `N#CC(c1cc2c(cc1Br)OCO2)N1CCOCC1` (stereo not drawn), for which the GI50 in experiment [1] is 62.8 µM (inactive); in experiment [2], 48.5 µM (inactive); in [3], 6.5 µM (inactive); in experiment [4], > 100 µM (inactive); in experiment [5] it was 42.5 µM (inactive); in experiment [6], 25.6 µM (inactive). For the same molecule, the GI50 is 43.7 µM (inactive) in [7]; 18.2 µM (inactive) in [8]; 27.7 µM (inactive) in [9]; 61.5 µM (inactive) in experiment [10]; 98.2 µM (inactive) in experiment [11]; > 100 µM (inactive) in experiment [12]. The GI50 is 30.1 µM (inactive) in experiment [13]; > 100 µM (inactive) in experiment [14]; 19.9 µM (inactive) in experiment [15]; 29.7 µM (inactive) in experiment [16]; 73.3 µM (inactive) in [17]; > 100 µM (inactive) in experiment [18].

`COc1cccc(C(=O)Nc2c3ccccc3nc3ccccc23)c1OC`: the GI50 is 45.5 µM (inactive) in experiment [1]; > 100 µM (inactive) in [2]; > 100 µM (inactive) in experiment [3]; > 100 µM in [19]; > 100 µM (inactive) in experiment [5]; 36.8 µM (inactive) in [6]. In addition, the GI50 was > 100 µM (inactive) in experiment [7]; > 100 µM (inactive) in experiment [8]; > 100 µM (inactive) in experiment [9]; > 100 µM (inactive) in [10]; > 100 µM (inactive) in experiment [11]; 29.2 µM (inactive) in experiment [12]. Moreover, the GI50 in [13] was > 100 µM (inactive); in experiment [14], > 100 µM (inactive); in experiment [15] it was 23.4 µM (inactive); in experiment [16], > 100 µM (inactive); in [17], 51.9 µM (inactive); in experiment [18], > 100 µM (inactive).

Regarding `Cc1ccc(C)n2c1nc1cc3ccccc3cc12`, the GI50 in [1] was 29.6 µM (inactive); in experiment [2], 51.9 µM (inactive); in experiment [3], 15.3 µM (inactive); in experiment [19], 4.92 µM; in [4], 8.75 µM (inactive); in experiment [6], 60.3 µM (inactive). In addition, the GI50 is 38.6 µM (inactive) in experiment [8]; 23.3 µM (inactive) in experiment [9]; 36 µM (inactive) in experiment [10]; 25.2 µM (inactive) in [11]; 25.1 µM (inactive) in experiment [13]; 74.3 µM (inactive) in experiment [14]. In addition, the GI50 in experiment [15] is 12.3 µM (inactive); in [16], 30.7 µM (inactive); in experiment [17], 32.4 µM (inactive); in experiment [18], 49.2 µM (inactive).

For the molecule `CCCCc1ccc(-n2sc3ncc(C)cc3c2=O)cc1`, the GI50 in [1] is 30.9 µM (inactive); in experiment [2], 30.3 µM (inactive); in experiment [3] it was 78 µM (inactive); in experiment [19], 16.4 µM; in [4], 26.8 µM (inactive); in experiment [6], > 100 µM (inactive). The GI50 in [7] is 25.6 µM (inactive); in experiment [8], 51.5 µM (inactive); in experiment [9] it was 25.2 µM (inactive); in experiment [10] it was > 100 µM (inactive); in experiment [11], 30.1 µM (inactive); in [12], 16.3 µM (inactive). In addition, the GI50 in experiment [13] is 18.5 µM (inactive); in [14] it was 22.7 µM (inactive); in experiment [15] it was 27.2 µM (inactive); in [17], 28.6 µM (inactive).

As for `COC(=O)C1CC2(CCC1=O)Cc1ccccc1C2=O` (stereo not drawn), the GI50 was > 100 µM (inactive) in experiment [1]; > 100 µM (inactive) in experiment [2]; 87.7 µM (inactive) in experiment [3]; > 100 µM in experiment [19]; > 100 µM (inactive) in experiment [5]; > 100 µM (inactive) in [6]. In addition, the GI50 in [7] is > 100 µM (inactive); in experiment [8], > 100 µM (inactive); in [9], 48.5 µM (inactive); in experiment [10], 47.4 µM (inactive); in [11] it was > 100 µM (inactive); in experiment [12], 67.8 µM (inactive). In addition, the GI50 was > 100 µM (inactive) in [14]; 14.5 µM (inactive) in experiment [15]; > 100 µM (inactive) in experiment [16]; > 100 µM (inactive) in experiment [17]; > 100 µM (inactive) in [18].

Turning to `CCNC1(c2cccc(C)c2)OC(C)(C)c2cccc3cccc1c23` (stereo not drawn), the GI50 in experiment [20] is 17.5 µM (inactive); in [1], 17 µM (inactive); in experiment [2], 17.7 µM (inactive); in experiment [3], 27 µM (inactive); in [19] it was 19.6 µM; in experiment [4] it was 3.83 µM (inactive). For the same molecule, the GI50 in [5] was 14 µM (inactive); in experiment [6] it was 20.1 µM (inactive); in experiment [8] it was 19.3 µM (inactive); in experiment [10], 19.9 µM (inactive); in experiment [11] it was 17.9 µM (inactive); in experiment [12] it was 15.1 µM (inactive). The GI50 in [13] is 17.3 µM (inactive); in [14], 19.1 µM (inactive); in experiment [15] it was 16.8 µM (inactive); in experiment [16] it was 17.9 µM (inactive); in experiment [17], 17.7 µM (inactive); in experiment [18], 18.8 µM (inactive).

For `CC(C)(C)CN1[C@@H]2CCCC[C@H]2N(CC(C)(C)C)P1(=O)Cc1ccccc1`, the GI50 in [1] is 15.2 µM (inactive); in [2], 15.6 µM (inactive); in [3], 10.2 µM (inactive); in experiment [19], 12 µM; in experiment [5] it was 10.1 µM (inactive); in experiment [6], 15.7 µM (inactive). Further, the GI50 was 12.2 µM (inactive) in experiment [7]; 14.9 µM (inactive) in experiment [8]; 11.5 µM (inactive) in experiment [9]; 12.9 µM (inactive) in experiment [10]; 13 µM (inactive) in experiment [11]; 7.48 µM (inactive) in [12]. The GI50 was 10.7 µM (inactive) in experiment [13]; 12.7 µM (inactive) in [14]; 10.8 µM (inactive) in experiment [15]; 17.3 µM (inactive) in [16]; 15.1 µM (inactive) in experiment [17]; 12.8 µM (inactive) in experiment [18].

Turning to `CCOC(=O)Cn1nnc2ccc(Nc3nc4ccccc4nc3C(=O)OCC)cc21`, the GI50 is > 100 µM (inactive) in [20]; > 100 µM (inactive) in experiment [1]; 74.1 µM (inactive) in experiment [2]; > 100 µM (inactive) in experiment [3]; > 100 µM in experiment [19]; 56.2 µM (inactive) in experiment [4]. In addition, the GI50 in [5] is > 100 µM (inactive); in experiment [6], 33.5 µM (inactive); in [8], > 100 µM (inactive); in experiment [9] it was > 100 µM (inactive); in experiment [10], > 100 µM (inactive); in [11], 45.9 µM (inactive). Besides, the GI50 is 39.7 µM (inactive) in experiment [12]; > 100 µM (inactive) in experiment [13]; > 100 µM (inactive) in experiment [14]; 37.9 µM (inactive) in experiment [15]; 31.3 µM (inactive) in [16]; 59 µM (inactive) in experiment [17]. In addition, the GI50 in experiment [18] is > 100 µM (inactive).

In the case of `Cn1c(=O)n2n(c1=O)C(S(=O)(=O)c1ccccc1)C2` (stereo not drawn), the GI50 in experiment [1] is > 100 µM (inactive); in experiment [2] it was > 100 µM (inactive); in experiment [3], > 100 µM (inactive); in [19] it was > 100 µM; in experiment [4], > 100 µM (inactive); in experiment [5], > 100 µM (inactive). The GI50 in experiment [6], in experiment [7], in experiment [8], in experiment [9], in experiment [11] and in experiment [12] was > 100 µM (inactive) throughout. Moreover, the GI50 in [13], in [14], in experiment [15], in experiment [16], in [17] and in experiment [18] was > 100 µM (inactive) each time.

In the case of `CC(=O)Oc1ccc2c(c1)O/C(=C\c1ccc(O)cc1)C2=O`, the GI50 in experiment [1] was > 100 µM (inactive); in experiment [2] it was > 100 µM (inactive); in [3], > 100 µM (inactive); in [19], > 100 µM; in experiment [6], 27.5 µM (inactive); in [7], > 100 µM (inactive). The GI50 in experiment [8] was > 100 µM (inactive); in experiment [9], > 100 µM (inactive); in experiment [10], > 100 µM (inactive); in [11], > 100 µM (inactive); in [12] it was 28.4 µM (inactive); in [13] it was > 100 µM (inactive). Further, the GI50 in experiment [15], in [16], in experiment [17] and in experiment [18] was > 100 µM (inactive) in each case.

In the case of `CCOC(=O)Nc1[nH]cc(-c2ccccc2)c1C#N`, the GI50 in [20] was > 100 µM (inactive); in experiment [1], > 100 µM (inactive); in experiment [2], > 100 µM (inactive); in experiment [3] it was > 100 µM (inactive); in experiment [19], > 100 µM; in experiment [5], > 100 µM (inactive). In addition, the GI50 in experiment [6], in experiment [7], in [8], in [9], in experiment [10] and in [11] was > 100 µM (inactive) throughout. In addition, the GI50 in experiment [12], in experiment [13], in experiment [14] and in experiment [17] was > 100 µM (inactive) in each case.

`CC(=O)OC1OC(c2ccoc2)C[C@@]12C1CCC3O[C@]3(C)[C@]1(C)[C@H](OC(C)=O)[C@H](OC(C)=O)[C@H]2C` (stereo partly drawn): the GI50 in [20] is > 37.5 µM (inactive); in experiment [1], > 37.5 µM (inactive); in [3] it was > 37.5 µM (inactive); in [19], > 37.5 µM; in [4], > 37.5 µM (inactive); in experiment [5] it was > 37.5 µM (inactive). Further, the GI50 was > 37.5 µM (inactive) in experiment [6]; > 37.5 µM (inactive) in [7]; > 37.5 µM (inactive) in [8]; 18.5 µM (inactive) in experiment [9]; > 37.5 µM (inactive) in experiment [10]; 30.3 µM (inactive) in [11]. For the same molecule, the GI50 in experiment [13], in experiment [14], in [15], in experiment [16], in experiment [17] and in experiment [18] was > 37.5 µM (inactive) throughout.
